The values that follow come from article PMC8657982, “Overlap and Specificity in the Substrate Spectra of Human Monoamine Transporters and Organic Cation Transporters 1, 2, and 3” (International Journal of Molecular Sciences, 2021).

The term Km denotes the substrate concentration at which the rate is half of its maximum. Broadly, the Vmax is the rate approached at saturating substrate.

Data set [1] deals with NET (Homo sapiens, UniProt P23975). Kind of data set: Uptake into HEK293 cells overexpressing NET (uptake ratio and concentration-dependent uptake). The following applies: intrinsic clearance, quotient of vmax and Km.
Chain of NET (Homo sapiens, UniProt P23975) (P23975 whole entry): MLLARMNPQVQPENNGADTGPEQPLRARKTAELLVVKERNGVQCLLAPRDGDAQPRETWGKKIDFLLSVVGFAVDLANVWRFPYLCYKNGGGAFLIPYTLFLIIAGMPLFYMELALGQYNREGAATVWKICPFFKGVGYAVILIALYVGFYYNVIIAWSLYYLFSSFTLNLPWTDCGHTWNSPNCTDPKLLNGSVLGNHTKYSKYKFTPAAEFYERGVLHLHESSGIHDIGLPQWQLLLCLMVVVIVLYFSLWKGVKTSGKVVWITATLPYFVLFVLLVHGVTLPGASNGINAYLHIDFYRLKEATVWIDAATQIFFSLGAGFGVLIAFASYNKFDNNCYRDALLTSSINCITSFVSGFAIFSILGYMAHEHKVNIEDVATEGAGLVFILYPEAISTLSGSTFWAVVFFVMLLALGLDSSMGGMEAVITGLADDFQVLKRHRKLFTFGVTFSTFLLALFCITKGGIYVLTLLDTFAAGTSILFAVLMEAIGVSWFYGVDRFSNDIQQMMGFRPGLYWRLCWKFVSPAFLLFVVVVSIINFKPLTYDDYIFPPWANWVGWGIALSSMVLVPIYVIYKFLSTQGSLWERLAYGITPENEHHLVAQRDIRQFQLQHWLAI
Data set [2] has as its target DAT (Homo sapiens, UniProt Q01959). As to the kind of experiment: Uptake into HEK293 cells overexpressing DAT (uptake ratio and concentration-dependent uptake). The following applies: for Clint ± SEM: intrinsic clearance, quotient of vmax and Km.
A further data set has as its target T1, OCT1 (Homo sapiens, UniProt O15245).
T1 sequence (O15245 1-554): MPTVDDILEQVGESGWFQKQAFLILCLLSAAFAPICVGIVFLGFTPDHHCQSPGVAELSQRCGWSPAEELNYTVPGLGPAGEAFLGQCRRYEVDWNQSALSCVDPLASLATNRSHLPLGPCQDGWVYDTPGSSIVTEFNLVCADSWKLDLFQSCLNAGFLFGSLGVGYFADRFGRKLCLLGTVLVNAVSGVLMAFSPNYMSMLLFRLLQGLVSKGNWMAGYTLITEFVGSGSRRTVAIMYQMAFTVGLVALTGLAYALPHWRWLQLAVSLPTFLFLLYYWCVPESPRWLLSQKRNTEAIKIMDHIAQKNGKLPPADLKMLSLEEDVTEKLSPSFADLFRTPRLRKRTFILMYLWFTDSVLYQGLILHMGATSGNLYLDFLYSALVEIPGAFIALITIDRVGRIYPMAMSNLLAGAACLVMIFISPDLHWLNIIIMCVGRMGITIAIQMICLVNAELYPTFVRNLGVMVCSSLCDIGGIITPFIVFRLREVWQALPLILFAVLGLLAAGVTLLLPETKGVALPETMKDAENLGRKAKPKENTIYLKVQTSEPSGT
Kind of data set: Uptake into HEK293 cells overexpressing OCT1 (uptake ratio and concentration-dependent uptake). Conditions: intrinsic clearance, quotient of vmax and Km.

The next data set concerns the target T2, OCT2 (Homo sapiens, UniProt O15244).
T2 sequence (O15244 1-555): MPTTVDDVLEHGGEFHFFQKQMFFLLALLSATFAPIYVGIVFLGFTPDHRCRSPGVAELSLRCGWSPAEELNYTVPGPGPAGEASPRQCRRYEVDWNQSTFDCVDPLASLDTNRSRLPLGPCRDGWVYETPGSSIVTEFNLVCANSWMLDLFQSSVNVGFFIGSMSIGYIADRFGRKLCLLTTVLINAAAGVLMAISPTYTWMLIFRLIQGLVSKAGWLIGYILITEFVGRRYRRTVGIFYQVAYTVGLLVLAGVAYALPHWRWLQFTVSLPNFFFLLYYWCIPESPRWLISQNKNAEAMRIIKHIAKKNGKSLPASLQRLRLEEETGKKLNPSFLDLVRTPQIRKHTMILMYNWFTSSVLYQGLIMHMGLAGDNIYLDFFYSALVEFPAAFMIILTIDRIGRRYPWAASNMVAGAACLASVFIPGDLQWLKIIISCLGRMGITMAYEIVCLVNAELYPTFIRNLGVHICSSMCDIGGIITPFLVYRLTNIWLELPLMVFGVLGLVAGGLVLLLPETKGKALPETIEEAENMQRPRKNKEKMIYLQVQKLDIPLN
As to the kind of experiment: Uptake into HEK293 cells overexpressing OCT2 (uptake ratio and concentration-dependent uptake). The following applies: for Vmax ± SEM: concentration-dependent net uptake, Michaelis–Menten; for Clint ± SEM: intrinsic clearance, quotient of vmax and Km.

The target in a further data set is T3, OCT3 (Homo sapiens, UniProt O75751).
T3 sequence (O75751 1-556): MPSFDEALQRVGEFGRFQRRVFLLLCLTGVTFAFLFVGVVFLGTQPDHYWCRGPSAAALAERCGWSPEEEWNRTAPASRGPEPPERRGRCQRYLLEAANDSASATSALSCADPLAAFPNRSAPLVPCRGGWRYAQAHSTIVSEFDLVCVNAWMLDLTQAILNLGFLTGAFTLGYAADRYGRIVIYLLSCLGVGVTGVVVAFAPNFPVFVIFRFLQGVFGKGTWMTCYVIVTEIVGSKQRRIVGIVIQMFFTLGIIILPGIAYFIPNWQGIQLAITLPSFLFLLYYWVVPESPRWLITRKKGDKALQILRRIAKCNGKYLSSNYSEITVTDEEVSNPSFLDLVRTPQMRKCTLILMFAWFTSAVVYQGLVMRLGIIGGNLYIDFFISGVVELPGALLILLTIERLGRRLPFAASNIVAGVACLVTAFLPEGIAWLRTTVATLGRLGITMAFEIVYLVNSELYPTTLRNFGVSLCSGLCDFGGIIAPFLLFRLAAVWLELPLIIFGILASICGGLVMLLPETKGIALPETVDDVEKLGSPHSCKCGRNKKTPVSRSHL
Kind of data set: Uptake into HEK293 cells overexpressing OCT3 (uptake ratio and concentration-dependent uptake). Conditions: intrinsic clearance, quotient of vmax and Km.

The target of a further data set is SERT (Homo sapiens, UniProt P31645). Kind of data set: Uptake into HEK293 cells overexpressing SERT (uptake ratio and concentration-dependent uptake). Conditions: for Clint ± SEM: SERT, intrinsic clearance, quotient of vmax and Km.
Chain of SERT (P31645 whole entry): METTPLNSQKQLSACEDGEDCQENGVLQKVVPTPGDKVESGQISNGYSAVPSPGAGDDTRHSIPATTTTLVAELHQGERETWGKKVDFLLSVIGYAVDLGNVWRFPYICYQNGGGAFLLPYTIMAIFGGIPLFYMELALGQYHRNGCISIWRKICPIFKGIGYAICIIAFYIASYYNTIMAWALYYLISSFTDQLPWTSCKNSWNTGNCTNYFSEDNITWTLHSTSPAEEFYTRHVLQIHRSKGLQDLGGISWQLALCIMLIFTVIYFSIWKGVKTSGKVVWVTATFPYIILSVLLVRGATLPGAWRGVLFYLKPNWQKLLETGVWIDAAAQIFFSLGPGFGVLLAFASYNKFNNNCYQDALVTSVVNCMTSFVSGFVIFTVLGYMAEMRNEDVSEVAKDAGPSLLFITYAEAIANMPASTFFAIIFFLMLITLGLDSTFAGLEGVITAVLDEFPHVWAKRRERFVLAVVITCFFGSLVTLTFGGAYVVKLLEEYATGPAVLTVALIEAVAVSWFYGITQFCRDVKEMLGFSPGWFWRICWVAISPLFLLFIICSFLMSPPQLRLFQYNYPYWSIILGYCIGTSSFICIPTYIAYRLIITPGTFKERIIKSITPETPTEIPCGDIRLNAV
The test system of the next data set is CNCCc1c[nH]c2ccc(O)cc12. As to the kind of experiment: cells, lysate or membranes. The following applies: pH 7.4.
For data set [3], the system named is CN[C@@H]1CCc2[nH]c3ccc(C(N)=O)cc3c2C1. As to the kind of experiment: cells, lysate or membranes. The following applies: other: SERT; concentration-dependent net uptake, Michaelis–Menten; pH 7.4.
For another data set, the system named is N=C(N)NCc1cccc(I)c1. Kind of data set: cells, lysate or membranes. The following applies: other: SERT; concentration-dependent net uptake, Michaelis–Menten; pH 7.4.
Another data set relates to NCCc1c[nH]c2ccccc12. Kind of data set: cells, lysate or membranes. Conditions: other: SERT; concentration-dependent net uptake, Michaelis–Menten; pH 7.4.
The subject of data set [4] is NET. The arrangement: method as in PMID 31265842. The following applies: cited from earlier work.
Data set [5] concerns DAT. Details: method as in PMID 31265842. Conditions: cited from earlier work.
Substrate in data set [6]: CNCCc1c[nH]c2ccc(O)cc12
Kind of data set: cells, lysate or membranes. Conditions: other: DAT; concentration-dependent net uptake, Michaelis–Menten; pH 7.4.

Substrate in data set [7]: N=C(N)NCc1cccc(I)c1
As to the kind of experiment: cells, lysate or membranes. The following applies: other: DAT; concentration-dependent net uptake, Michaelis–Menten; pH 7.4.

Substrate in data set [8]: NCCc1c[nH]c2ccc(O)cc12
Kind of data set: cells, lysate or membranes. Conditions: other: DAT; concentration-dependent net uptake, Michaelis–Menten; pH 7.4.

Substrate in data set [9]: NCCc1ccc(O)c(O)c1
Kind of data set: cells, lysate or membranes. The following applies: other: DAT; concentration-dependent net uptake, Michaelis–Menten; pH 7.4.

Substrate in data set [10]: NCCc1ccccc1
Kind of data set: cells, lysate or membranes. Conditions: other: DAT; concentration-dependent net uptake, Michaelis–Menten; pH 7.4.
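For Uptake Ratio by Transporter SERT in this document: incubation at 37 °C, intracellular compound quantified by HPLC-MS/MS after cell lysis, uptake normalized to total protein measured by bicinchoninic acid assay.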
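For Uptake Ratio by Transporter SERT in this document: ratio of uptake in SERT cells over empty-vector control cells.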

Consider `NCCc1c[nH]c2ccc(O)cc12` [Serotonin], for which the “Clint ± SEM” value on NET [1] is reported as 18.83 mL × g Protein^−1 × min^−1; on DAT [2], 77.39 mL × g Protein^−1 × min^−1; at OCT1, 21.91 mL × g Protein^−1 × min^−1; at OCT2 it was 46.04 mL × g Protein^−1 × min^−1; at OCT3, 1.17 mL × g Protein^−1 × min^−1; on SERT, 256.9 mL × g Protein^−1 × min^−1. Also, at OCT2, the “Vmax ± SEM” value is 31,565 pmol × mg Protein^−1 × min^−1.

Turning to `NC(N)=NCc1cccc(I)c1` [mIBG, meta-iodobenzylguanidine, reference compound], the “Clint ± SEM” value on NET [1] was 284 mL × g Protein^−1 × min^−1; at NET [1] (listed as meta-iodobenzylguanidine), 284.6 ± 84.2 mL × g Protein^−1 × min^−1; on DAT [2] it was 229 ± 33.8 mL × g Protein^−1 × min^−1; at OCT1 it was 138 ± 38.5 mL × g Protein^−1 × min^−1; on OCT2 it was 152 ± 34.1 mL × g Protein^−1 × min^−1; at OCT3, 161 ± 35.7 mL × g Protein^−1 × min^−1. Also, the “Clint ± SEM” value at SERT is given as 38.2 ± 25.9 mL × g Protein^−1 × min^−1. In addition, the “Vmax ± SEM” value on DAT [2] (concentration-dependent net uptake, Michaelis–Menten) is recorded as 2800 pmol × mg Protein^−1 × min^−1.

With SERT (Homo sapiens), the Km in the data set with CNCCc1c[nH]c2ccc(O)cc12 is 4.065 ± 1.829 µM; in data set [3], 26.51 µM; with N=C(N)NCc1cccc(I)c1 it was 11.2 ± 6.2 µM; in the data set on NCCc1c[nH]c2ccccc12, 29.0 µM. Moreover, the Vmax in the data set on CNCCc1c[nH]c2ccc(O)cc12 was 1373.0 pmol × mg Protein^−1 × min^−1; in data set [3] it was 1020 pmol × mg Protein^−1 × min^−1; in the data set with N=C(N)NCc1cccc(I)c1, 0.000429 µmol/min/mg; with NCCc1c[nH]c2ccccc12, 634.6 pmol × mg Protein^−1 × min^−1. Further, in the data set with N=C(N)NCc1cccc(I)c1, the Vmax/Km was determined as 38.2 µL/min/mg.

For the molecule `NCCc1ccccc1` [Phenylethylamine], in the data set with NET [4], the “NET inhibition IC50” value is on record as “low micromolar range”. Moreover, the “DAT inhibition IC50” value with DAT [5] is “low micromolar range”. Also, the “Clint ± SEM” value on NET [1] is 3.4 mL × g Protein^−1 × min^−1; on DAT [2], 2.1 mL × g Protein^−1 × min^−1. At SERT, the “Uptake Ratio by Transporter SERT” value stood at 1.71.

As for `CNCCc1c[nH]c2ccc(O)cc12` [N-Methyl serotonin], the “Clint ± SEM” value is 80.52 mL × g Protein^−1 × min^−1 on OCT1, 46.93 mL × g Protein^−1 × min^−1 on OCT2, 9.68 mL × g Protein^−1 × min^−1 on OCT3 and 337.7 mL × g Protein^−1 × min^−1 at SERT. The “Vmax ± SEM” value at OCT2 is on record as 11,918 pmol × mg Protein^−1 × min^−1.

B1: DAT (Homo sapiens) (protein)
chain: MSKSKCSVGLMSSVVAPAKEPNAVGPKEVELILVKEQNGVQLTSSTLTNPRQSPVEAQDRETWGKKIDFLLSVIGFAVDLANVWRFPYLCYKNGGGAFLVPYLLFMVIAGMPLFYMELALGQFNREGAAGVWKICPILKGVGFTVILISLYVGFFYNVIIAWALHYLFSSFTTELPWIHCNNSWNSPNCSDAHPGDSSGDSSGLNDTFGTTPAAEYFERGVLHLHQSHGIDDLGPPRWQLTACLVLVIVLLYFSLWKGVKTSGKVVWITATMPYVVLTALLLRGVTLPGAIDGIRAYLSVDFYRLCEASVWIDAATQVCFSLGVGFGVLIAFSSYNKFTNNCYRDAIVTTSINSLTSFSSGFVVFSFLGYMAQKHSVPIGDVAKDGPGLIFIIYPEAIATLPLSSAWAVVFFIMLLTLGIDSAMGGMESVITGLIDEFQLLHRHRELFTLFIVLATFLLSLFCVTNGGIYVFTLLDHFAAGTSILFGVLIEAIGVAWFYGVGQFSDDIQQMTGQRPSLYWRLCWKLVSPCFLLFVVVVSIVTFRPPHYGAYIFPDWANALGWVIATSSMAMVPIYAAYKFCSLPGSFREKLAYAIAPEKDRELVDRGEVRQFTLRHWLKV
Regarding B1, the Km in [6] was 43.82 ± 14.39 µM; in [7] it was 12.2 ± 1.46 µM; in data set [8], 50.50 µM; in data set [9], 25.1 µM; in [10], 156 µM. Moreover, the Vmax is 3560 pmol × mg Protein^−1 × min^−1 in data set [6]; 0.0028 µmol/min/mg in data set [7]; 3908 pmol × mg Protein^−1 × min^−1 in data set [8]; 1977 pmol × mg Protein^−1 × min^−1 in data set [9]; 325 pmol × mg Protein^−1 × min^−1 in data set [10]. Further, the Vmax/Km in data set [7] was determined as 229 µL/min/mg.
